Laboratory results reported in publication PMC3592886, “Utilization of Quantitative In Vivo Pharmacology Approaches to Assess Combination Effects of Everolimus and Irinotecan in Mouse Xenograft Models of Colorectal Cancer” (PLoS ONE, 2013).
Read-outs that look alike come from different tables or passages of the source. Marks after values point to notes of the source that are not given here. Values belong to the compound of their own block, whether it stands above or below them.

How the values were obtained:
HT29 tumor xenografts = assay: Therapeutic study and tumor growth modeling, HT29 tumor xenografts; assay type: in vivo, mice
Procedure: (§1) For tumor bearing studies, cells were harvested and resuspended in a 1∶1 mixture of serum-free RPMI and Matrigel (BD Bioscience). One million cells were injected subcutaneously into each rear flank of mice. Tumor volumes, measured by digital calipers, were calculated by V (mm^3) = length x (width)^2 x 0.5236.
(§2) When HT29 and HCT116 tumors reached an average volume of ∼325 mm^3 animals were randomized into four treatment groups (n = 9–10 mice per group): (i) vehicles, (ii) 5 mg/kg everolimus (RAD) by oral gavage (PO) daily, (iii) 10 mg/kg irinotecan (IRI) once weekly by intravenous (iv) tail vein injection, and (iv) a combination of RAD and IRI. Everolimus, diluted in sterile water, and irinotecan, diluted in sterile 0.9% saline, were administered at 4 mL/kg. Animals were treated for 28 days. Tumor volumes and body weights were measured 2–3 times weekly. On day 28 of treatment 3–6 animals per group were sacrificed, approximately 24 hours following everolimus treatment, and tumors harvested for metabolomic analysis.
(§3) Data from the in vivo study was modeled to assess the therapeutic benefit of adding everolimus to irinotecan. The model used was similar to a previously published model for assessing combination therapy. Some modifications were made and details of the model can be found in Supplement S1 (section SA.3.) and Supplement S2. All modeling was performed on individual animal tumor volume data and modeled with SAAM II version 2.1. […]
(§4) are presented in Tables 1 and 2 in Supplement B. Individual fits of the model to the data can also be found in Supplement B. The average growth terms for each tumor type were then fixed at the average parameter value and used to determine the single agent effects (kx) of each compound by fitting the following equation: […] where cx(t) is the concentration of drug x with respect to time. Individual tumors were modeled and the average value of kx determined (Supplement B Tables 1 & 2) for each single agent treatment. This value was used to fit the following equation to the combination tumor growth data to determine the degree of interaction between the two drugs.
(§5) , the interaction term, was determined for each individual tumor for each tumor type and the data is presented in Table 2 in the main text and individual fits can be found in Supplement B.
(§6) We determined that values greater than 1.3 are synergistic, between 1.3 and 0.7 are additive, between 0.7 and 0 are less than additive, and negative values for are antagonistic. These ranges were selected based on the model fits. The CV% for the model fits ranged from 15 to 50 with an average CV% of approximately 30%. Therefore we assume an average variance of 30% making the additive range from 1.3 to 0.7 (1 + 30% and 1- 30%). […]

HCT116 tumor xenografts = assay: Therapeutic study and tumor growth modeling, HCT116 tumor xenografts; assay type: in vivo, mice
Procedure: as §1, §2, §3, §4, §5, §6

[1] = Irinotecan and SN-38 plasma PK model and simulations in mice; details: PK model parameter, fit to data of previous publications (37-39)
Source text: The pharmacokinetic models used for everolimus and irinotecan and SN38 in the above equations can be found in Supplement B. Data used to fit the everolimus pharmacokinetics was obtained in the study presented here. In the above equations, for irinotecan treatments, SN38 concentration was used to determine the effect since it is the active agent. The data used to fit the irinotecan and SN38 pharmacokinetics was obtained from previous publications (37-39).
Irinotecan and SN-38 Plasma PK […]

HT29 tumors = assay: NMR-based metabolomics of HT29 tumors; assay type: in vivo, mice; details: end of study
Procedure: as §2
For metabolomic analysis, animals were fasted for 4 hours then received 250 mg/kg of [1-^13C] glucose (Cambridge Isotopes, Cambridge, MA) by IV injection 60 minutes prior to tumor harvesting. Snap-frozen tumor specimens underwent two-phase acid extraction procedure (using 8% perchloric acid) previously established and extensively published [19]–[22]. Further details may also be found in Supplement S1 (section SA.2.).

HT29 cells = assay: Sulforhodamine B (SRB) anti-proliferation assay, HT29; assay type: cell-based
Procedure: (§7) Cytoxic effects were determined using the sulforhodamine B (SRB) assay. Briefly, 5000 viable cells were plated into 96-well plates and incubated overnight prior to exposure with different concentrations of drugs. Cells were exposed to increasing concentrations of everolimus (0–200 nM), SN38 (0–8 nM), and combinations of the two. Following a 72 hour incubation, media was removed and cells were fixed with cold 10% trichloroacetic acid for 30 minutes at 4° C. Cells were washed with water and stained with 0.4% SRB for 30 minutes at room temperature. Cells were washed again with 1% acetic acid and stain was solubilized with 10 mM tris at room temperature and read at an OD of 565 nm. […] The resulting Combination Index (CI) was used as a quantitative measure of the degree of interaction between different drugs. A CI value equal to 1 denotes additivity; CI greater than 1, antagonism; CI less than 1, synergism.

HCT116 cells = assay: Sulforhodamine B (SRB) anti-proliferation assay, HCT116; assay type: cell-based
Procedure: as §7

HCT8 cells = assay: Sulforhodamine B (SRB) anti-proliferation assay, HCT8; assay type: cell-based; details: RAD (20 nM), SN38 (4 nM) or the combination of the two, Figure 2
Procedure: as §7

p21 = assay: Western blot, p21 in CRC cell lines; assay type: cell-based; details: SN38 4 nM, 24 hours, HCT116 and HCT8 cells
Procedure: (§8) Cells were seeded into 6-well plates 24 hours prior to treatment with each drug alone or in combination for 24 hours. Cells were scraped into RIPA buffer containing protease inhibitors, EDTA, NaF, and sodium orthovanadate. Total protein was determined using the Pierce 660 nm Protein Assay (Pierce, Rockford, IL). Thirty micrograms of total protein was loaded onto a 4–12% gradient gel, electrophoresed and transferred to nitrocellulose using the iBlot system (Invitrogen, Carlsbad, CA). Membranes were blocked for one hour at room temperature with Licor Blocking Buffer (Licor, Lincoln, NE) prior to overnight incubation at 4°C with one of the following antibodies: pS6RP, tS6RP, pAKT, tAKT, pERK, tERK, p21, PARP, actin and α-tubulin (Cell Signaling, Beverly, MA). All antibodies were used at a 1∶1000 dilution except for pERK, which was used at 1∶2000. Following primary antibody incubation, blots were washed in TBS-Tween(0.1%), then incubated with the appropriate secondary antibody at 1∶15,000 (Licor, Lincoln, NE) for one hour at room temperature. After three additional washes, blots were developed using the Licor Odyssey (Licor, Lincoln, NE).

cleaved PARP = assay: Western blot, cleaved PARP in CRC cell lines; assay type: cell-based
Procedure: as §8

[2] = Human pharmacokinetics of SN38 after irinotecan from the literature; assay type: in vivo; details: humans, irinotecan doses ranging from 125–350 mg/m^2, from literature data
Procedure: (§9) In vivo SN38 data was evaluated to define the dose of irinotecan to be used since it is the active metabolite of irinotecan and carboxylesterase conversion of irinotecan to SN38 varies between mice and humans. Based on human and mouse pharmacokinetic data gathered from literature data [27]–[30], [35]–[40], we selected a dose of 10 mg/kg of irinotecan to be administered intravenously once weekly (Table 2).

[3] = Mouse pharmacokinetics of SN38 after irinotecan from the literature; assay type: in vivo; details: mice, irinotecan 10 mg/kg iv, estimated from literature data
Procedure: as §9

[4] = Human, cited from earlier work
[5] = cited from earlier work; for AUC0→t: t = 6 h
[6] = SN38, mice; cited from earlier work
[7] = SN38, humans; cited from earlier work
[8] = SN38 after irinotecan 125mg/m^2, 1.5 hr INF, ref 27
[9] = SN38 after irinotecan 125mg/m^2, 1.5 hr INF, ref 29
[10] = SN38 after irinotecan 340mg/m^2, 1.5 hr INF
[11] = SN38 after irinotecan 350mg/m^2, 1 hr INF, Week 4 PK with cetuximab
[12] = SN38 after irinotecan 350mg/m^2, 1 hr INF
[13] = SN38 after irinotecan 5mg/kg IV Bolus, Mouse
[14] = SN38 after irinotecan 10mg/kg IV Bolus, Mouse, ref 39
[15] = SN38 after irinotecan 20mg/kg IV Bolus, Mouse
[16] = SN38 after irinotecan 40mg/kg IV Bolus, Mouse

k(0,1) ([1]; K(0,1)IRI): 0.25 h⁻¹
k(3,1) ([1]; compartment 1 (irinotecan) to 3 (SN-38)): 1.91 h⁻¹
V1 ([1]; irinotecan central compartment, Dose = 10 mg/kg): 2.8 L/kg
k(1,2) [1]: 1.15 h⁻¹
k(2,1) [1]: 0.87 h⁻¹
Structure (SMILES): CCc1c2c(nc3ccc(OC(=O)N4CCC(N5CCCCC5)CC4)cc13)-c1cc3c(c(=O)n1C2)COC(=O)[C@]3(O)CC [Irinotecan]
k1 (SD), single agent effect (HT29 tumor xenografts; HT29 (BRAF and PIK3CA mutant), IRI, SN38 concentration used in the model): 0.0092 (0.0023) mL/ng*day-1
average tumor growth inhibition, TGI (HT29 tumor xenografts; HT29 xenografts, 5 mg/kg everolimus PO daily, 10 mg/kg irinotecan iv once weekly, or combination, 28 days): 39%
k1 (SD), single agent effect (HCT116 tumor xenografts; HCT116 (KRAS and PIK3CA mutant), IRI, SN38 concentration used in the model): 0.0149 (0.0086) mL/ng*day-1
average tumor growth inhibition, TGI (HCT116 tumor xenografts; HCT116 xenografts, 5 mg/kg everolimus PO daily, 10 mg/kg irinotecan iv once weekly, or combination, 28 days): 17%
effect on tumor lipids (HT29 tumors): accumulation of lipids

Structure (SMILES): CCc1c2c(nc3ccc(O)cc13)-c1cc3c(c(=O)n1C2)COC(=O)[C@]3(O)CC [SN38]
%Growth Inhibition (HT29 cells; HT29, RAD (20 nM), SN38 (4 nM) or the combination of the two, Figure 2): 59%
IC50 (HT29 cells; HT29 cells): 3 nM
%Growth Inhibition (HCT116 cells; HCT116, RAD (20 nM), SN38 (4 nM) or the combination of the two, Figure 2): 23%
IC50 (HCT116 cells; HCT116 cells): > 300 nM
%Growth Inhibition (HCT8 cells): 50%
effect on p21 (p21): increase
cleaved PARP (MW 89) (cleaved PARP; SN38 treated HCT8 cells): A small amount
cleaved PARP (MW 89) (cleaved PARP; SN38 treated HT29 or HCT116 cells): not
AUCfree of SN38 [2]: 4.4 to 18.6 ng·h/mL
AUCfree of SN38 [3]: 7.5 to 25.8 ng·h/mL
k(0,3) ([1]; K(0,3)SN38): 4.67 h⁻¹
V3 ([1]; SN-38 central compartment): 2.7 L/kg
k(3,4) [1]: 1.38 h⁻¹
k(4,3) [1]: 5.22 h⁻¹
AUC0→t [4, 8]: 229 ± 108 ng·h/mL
Cmax [4, 8]: 26.3 ± 11.9 ng/mL
t½ [4, 8]: 10.4 ± 3.1 h
AUC0→t [4, 9]: 228 ± 149 ng·h/mL
Cmax [4, 9]: 27 ± 12 ng/mL
t½ [4, 9]: 28.5 h
AUC0→t ([4]; SN38 after irinotecan 180mg/m^2, 1.5 hr INF, footnote a: Week 4 PK with cetuximab): 222–245 ^a ng·hr/mL
AUC0→t [4, 10]: 474 ± 245 ng·h/mL
Cmax [4, 10]: 56.0 ± 28.2 ng/mL
t½ [4, 10]: 21.0 ± 4.3 h
AUC0→t [4, 11]: 609±531 ^a ng·hr/mL
Cmax [4, 11]: 57±20 ^a ng/mL
t½ [4, 11]: 15±23 ^a hr
AUC0→t [4, 12]: 931 ± 948 ng·h/mL
Cmax [4, 12]: 88 ± 26 ng/mL
t½ [4, 12]: 23 ± 35 h
AUC0→∞ [5, 13]: 279 ^c ng·hr/mL
Cmax [5, 13]: 647 ng/mL
Cmax ([5]; SN38 after irinotecan 10mg/kg IV Bolus, Mouse (row r13), estimated from graph in reference): 443–673 ^b ng/mL
AUC0→∞ ([5]; SN38 after irinotecan 10mg/kg IV Bolus, Mouse (row r13)): 533–1029 ^c ng·hr/mL
Cmax ([5]; SN38 after irinotecan 10mg/kg IV Bolus, Mouse, estimated from graph in reference): 435–600 ^b ng/mL
t½ ([5]; SN38 after irinotecan 10mg/kg IV Bolus, Mouse, ref 36): 2.2 h
AUC0→∞ ([5]; SN38 after irinotecan 10mg/kg IV Bolus, Mouse, ref 37): 533–759 ^c ng·hr/mL
AUC0→∞ [5, 14]: 534 ^c ng·hr/mL
Cmax [5, 14]: 443 ng/mL
AUC0→t ([5]; SN38 after irinotecan 10mg/kg IV Bolus, Mouse): 410±60 (t = 6 h) ng·hr/mL
AUC0→t [5, 15]: 710±240 (t = 6 h) ng·hr/mL
t½ [5, 15]: 3.0 h
AUC0→t [5, 16]: 1080±110 (t = 6 h) ng·hr/mL
t½ [5, 16]: 3.4 h
plasma protein binding [6]: 96.6–98.6%
plasma protein binding [7]: 98%
